Data taken from patent publication US10189841B2, “Purinones as ubiquitin-specific protease 1 inhibitors” (Forma Therapeutics, Inc., priority 2015, dated 2019).

Biological target: USP1 (construct USP1 (I-785, GG670, 671AA)/UAF1 (I-677)-Flag) (Homo sapiens (Human), UniProt O94782, G670A/G671A)
Assay: Ubiquitin-Rhodamine 110 assay for USP1 activity
Type: biochemical
Conditions: USP1/UAF1 25 pM, Ub-Rh110 25 nM, 30 min preincubation
Procedure: Example 53: Ubitquin-Rhodamine 110 Assay for USP1 Activity
The HTS assay was performed in a final volume of 20 μL in assay buffer containing 20 mM Tris-HCl (pH 8.0, (1M Tris-HCl, pH 8.0 solution; Corning 46-031-CM)), 2 mM CaCl2 (1M Calcium Chloride solution; Sigma #21114) 1 mM GSH (L-Glutathione reduced; Sigma #G4251), 0.01% Prionex ([…] filtered, Sigma #G-0411), and 0.01% Triton X-100. Stock compound solutions were stored at −20° C. as 10 mM in DMSO. Up to 1 month prior to the assay, 2 mM test compounds were pre-dispensed into assay plates (Black, low volume; Corning #3820) and frozen at −20° C. Prestamped assay plates were allowed to come to room temperature on the day of the assay. For the screen, 100 nL of 2 mM was pre-dispensed for a final screening concentration of […] (DMSO(fc)=0.5%). The final concentration of the enzyme (USP1, construct USP1 (I-785, GG670, 671AA)/UAF1 (I-677)-Flag; Viva) in the assay was 100 pM. Final substrate (Ub-Rh110; Ubiquitin-Rhodamine 110, R&D Systems #U-555) concentration was 25 nM with [Ub-Rh110]<<Km. […] Plates were incubated stacked for 45 minutes at room temperature before fluorescence was read on the Envision (Excitation at 485 nm and Emission at 535 nm; Perkin Elmer) or on the PheraSTAR (Excitation at 485 nm and Emission at 535 nm; BMG Labtech)
Nanoliter quantities of either an 8-point or 10-point, 3-fold serial dilution in DMSO was pre-dispensed into assay plates (Perkin Elmer, ProxiPlate-384 F Plus, #6008269) for a final test concentration range of either 25 μM to 11 nM or 25 μM to 1.3 nM, respectively. The final concentration of the enzyme (USP1, construct USP1 (I-785, GG670, 671AA)/UAF1 (I-677)-Flag; Viva) in the assay was 25 pM. Final substrate (Ub-Rh110; Ubiquitin-Rhodamine 110, R&D Systems #U-555) concentration was 25 nM with [Ub-Rh110]<<Km. […] Plates were incubated stacked for 20 minutes at room temperature before 5 μL of stop solution (final concentration of 10 mM citric acid in assay buffer (Sigma, #251275-500G)). Fluorescence was read on the Envision (Excitation at 485 nm and Emission at 535 nm; Perkin Elmer) or on the PheraSTAR (Excitation at 485 nm and Emission at 535 nm; BMG Labtech).
For both assay formats data were reported as percent inhibition compared with control wells based on the following equation: % inh=[1−((FLU−AveLow)/(AveHigh−AveLow))]×100 where FLU=measured Fluorescence, AveLow=average Fluorescence of no enzyme control (n=16), and AveHigh=average Fluorescence of DMSO control (n=16). IC50 values were determined by curve fitting of the standard 4 parameter logistic fitting algorithm included in the Activity Base software package: IDBS XE Designer Model205. Data is fitted using the Levenburg Marquardt algorithm.

USP1 (construct USP1 (I-785, GG670, 671AA)/UAF1 (I-677)-Flag), sequence (O94782 whole entry G670A/G671A): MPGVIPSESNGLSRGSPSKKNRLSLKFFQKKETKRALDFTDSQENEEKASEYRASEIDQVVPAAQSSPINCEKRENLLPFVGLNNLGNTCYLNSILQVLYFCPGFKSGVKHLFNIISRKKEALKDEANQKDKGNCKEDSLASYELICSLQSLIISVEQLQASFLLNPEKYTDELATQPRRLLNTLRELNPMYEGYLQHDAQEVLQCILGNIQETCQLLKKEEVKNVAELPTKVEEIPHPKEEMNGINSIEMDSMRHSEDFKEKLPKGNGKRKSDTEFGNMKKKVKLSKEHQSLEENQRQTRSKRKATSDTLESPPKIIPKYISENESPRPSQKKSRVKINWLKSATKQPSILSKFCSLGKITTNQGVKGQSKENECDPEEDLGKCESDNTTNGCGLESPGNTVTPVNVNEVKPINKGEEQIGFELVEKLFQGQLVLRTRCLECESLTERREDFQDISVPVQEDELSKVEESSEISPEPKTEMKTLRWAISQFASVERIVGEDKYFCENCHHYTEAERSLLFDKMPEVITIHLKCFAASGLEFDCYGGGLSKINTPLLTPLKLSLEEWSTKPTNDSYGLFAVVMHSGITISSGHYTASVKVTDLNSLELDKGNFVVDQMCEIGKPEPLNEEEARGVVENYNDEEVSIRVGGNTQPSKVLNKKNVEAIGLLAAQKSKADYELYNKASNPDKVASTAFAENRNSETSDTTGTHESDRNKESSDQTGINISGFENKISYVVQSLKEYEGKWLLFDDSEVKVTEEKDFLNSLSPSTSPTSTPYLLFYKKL
USP1 (construct USP1 (I-785, GG670, 671AA)/UAF1 (I-677)-Flag), sequence (Q8TAF3 whole entry partner): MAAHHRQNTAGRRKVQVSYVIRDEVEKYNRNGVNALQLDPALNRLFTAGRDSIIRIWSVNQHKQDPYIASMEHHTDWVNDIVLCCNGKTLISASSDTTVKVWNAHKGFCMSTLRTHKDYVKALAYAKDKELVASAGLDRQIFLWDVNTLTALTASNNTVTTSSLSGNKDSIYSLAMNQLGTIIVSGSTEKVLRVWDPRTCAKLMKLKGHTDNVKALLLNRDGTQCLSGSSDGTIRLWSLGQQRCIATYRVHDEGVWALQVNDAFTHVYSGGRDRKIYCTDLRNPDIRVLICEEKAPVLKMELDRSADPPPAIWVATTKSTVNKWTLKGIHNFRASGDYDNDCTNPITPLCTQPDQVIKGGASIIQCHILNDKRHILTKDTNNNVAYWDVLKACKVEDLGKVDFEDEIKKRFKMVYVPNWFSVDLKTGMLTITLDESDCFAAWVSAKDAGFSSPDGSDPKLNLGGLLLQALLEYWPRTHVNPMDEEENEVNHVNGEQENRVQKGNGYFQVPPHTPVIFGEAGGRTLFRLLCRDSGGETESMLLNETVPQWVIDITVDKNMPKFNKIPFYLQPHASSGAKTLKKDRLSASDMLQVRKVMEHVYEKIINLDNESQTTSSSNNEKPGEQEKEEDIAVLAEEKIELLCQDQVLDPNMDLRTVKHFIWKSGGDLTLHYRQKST

## CO[C@H](C)c1ccccc1-c1ncc2[nH]c(=O)n(Cc3ccc(-c4nc(C(F)(F)F)cn4C)cc3)c2n1 [Compound I-55, (R)-2-(2-(1-methoxyethyl)phenyl)-9-(4-(1-methyl-4-(trifluoromethyl)-1H-imidazol-2-yl)benzyl)-7,9-dihydro-8H-purin-8-one]
  IC50: < 50 nM

## CO[C@@H](C)c1ccccc1-c1ncc2[nH]c(=O)n(Cc3ccc(-c4nc(C(F)(F)F)cn4C)cc3)c2n1 [Compound I-56, (S)-2-(2-(1-methoxyethyl)phenyl)-9-(4-(1-methyl-4-(trifluoromethyl)-1H-imidazol-2-yl)benzyl)-7,9-dihydro-8H-purin-8-one]
  IC50: < 50 nM

## Cn1cc(C(F)(F)F)nc1-c1ccc(Cn2c(=O)[nH]c3cnc(-c4cccnc4F)nc32)cc1 [Compound I-57, 2-(2-fluoropyridin-3-yl)-9-(4-(1-methyl-4-(trifluoromethyl)-1H-imidazol-2-yl)benzyl)-7,9-dihydro-8H-purin-8-one]
  IC50: 200 to 2000 nM

## Cc1cc(C(F)F)nn1-c1ccc(Cn2c(=O)[nH]c3cnc(-c4cccnc4C(C)C)nc32)cc1 [Compound I-58, 9-(4-(3-(difluoromethyl)-5-methyl-1H-pyrazol-1-yl)benzyl)-2-(2-isopropylpyridin-3-yl)-7,9-dihydro-8H-purin-8-one]
  IC50: < 50 nM

## CC(C)c1ncccc1-c1ncc2[nH]c(=O)n(Cc3ccc(-n4ccc(F)n4)cc3)c2n1 [Compound I-59, 9-(4-(3-fluoro-1H-pyrazol-1-yl)benzyl)-2-(2-isopropylpyridin-3-yl)-7,9-dihydro-8H-purin-8-one]
  IC50: 50 to 200 nM

## COc1cc(C(F)(F)F)nn1-c1ccc(Cn2c(=O)[nH]c3cnc(-c4cccnc4C(C)C)nc32)cc1 [Compound I-60, 2-(2-isopropylpyridin-3-yl)-9-(4-(5-methoxy-3-(trifluoromethyl)-1H-pyrazol-1-yl)benzyl)-7,9-dihydro-8H-purin-8-one]
  IC50: < 50 nM

## CCc1ncccc1-c1ncc2c(n1)n(Cc1ccc(-c3nc(C(F)(F)F)cn3C)cc1)c(=O)n2C [Compound I-61, 2-(2-ethylpyridin-3-yl)-7-methyl-9-(4-(1-methyl-4-(trifluoromethyl)-1H-imidazol-2-yl)benzyl)-7,9-dihydro-8H-purin-8-one]
  IC50: 50 to 200 nM

## Cc1ncccc1-c1ncc2c(n1)n(Cc1ccc(-c3nc(C(F)(F)F)cn3C)cc1)c(=O)n2C [Compound I-62, 7-methyl-9-(4-(1-methyl-4-(trifluoromethyl)-1H-imidazol-2-yl)benzyl)-2-(2-methylpyridin-3-yl)-7,9-dihydro-8H-purin-8-one]
  IC50: 200 to 2000 nM

## CC(C)c1ccccc1-c1ncc2c(n1)n(Cc1ccc(-c3nc(C(F)(F)F)cn3C)cc1)c(=O)n2C [Compound I-63, 2-(2-isopropylphenyl)-7-methyl-9-(4-(1-methyl-4-(trifluoromethyl)-1H-imidazol-2-yl)benzyl)-7,9-dihydro-8H-purin-8-one]
  IC50: < 50 nM

## Cn1cc(C(F)(F)F)nc1-c1ccc(Cn2c(=O)[nH]c3cnc(-c4cccnc4C(F)F)nc32)cc1 [Compound I-64, 2-(2-(difluoromethyl)pyridin-3-yl)-9-(4-(1-methyl-4-(trifluoromethyl)-1H-imidazol-2-yl)benzyl)-7,9-dihydro-8H-purin-8-one]
  IC50: 50 to 200 nM

## CC(C)c1c(F)cccc1-c1ncc2c(n1)n(Cc1ccc(-c3nc(C(F)(F)F)cn3C)cc1)c(=O)n2C [Compound I-65, 2-(3-fluoro-2-isopropylphenyl)-7-methyl-9-(4-(1-methyl-4-(trifluoromethyl)-1H-imidazol-2-yl)benzyl)-7,9-dihydro-8H-purin-8-one]
  IC50: < 50 nM

## Cc1nc(F)ccc1-c1ncc2c(n1)n(Cc1ccc(-c3nc(C(F)(F)F)cn3C)cc1)c(=O)n2C [Compound I-66, 2-(6-fluoro-2-methylpyridin-3-yl)-7-methyl-9-(4-(1-methyl-4-(trifluoromethyl)-1H-imidazol-2-yl)benzyl)-7,9-dihydro-8H-purin-8-one]
  IC50: 200 to 2000 nM

## CC(C)c1ncc(F)cc1-c1ncc2[nH]c(=O)n(Cc3ccc(-c4nc(C(F)(F)F)cn4C)cc3)c2n1 [Compound I-67, 2-(5-fluoro-2-isopropylpyridin-3-yl)-9-(4-(1-methyl-4-(trifluoromethyl)-1H-imidazol-2-yl)benzyl)-7,9-dihydro-8H-purin-8-one]
  IC50: < 50 nM

## Cc1cc(N2CCC2)nn1-c1ccc(Cn2c(=O)[nH]c3cnc(-c4cccnc4C(C)C)nc32)cc1 [Compound I-68, 9-(4-(3-(azetidin-1-yl)-5-methyl-1H-pyrazol-1-yl)benzyl)-2-(2-isopropylpyridin-3-yl)-7,9-dihydro-8H-purin-8-one]
  IC50: 50 to 200 nM

## CC(C)c1ncc(F)cc1-c1ncc2c(n1)n(Cc1ccc(-c3nc(C(F)(F)F)cn3C)cc1)c(=O)n2C [Compound I-69, 2-(5-fluoro-2-isopropylpyridin-3-yl)-7-methyl-9-(4-(1-methyl-4-(trifluoromethyl)-1H-imidazol-2-yl)benzyl)-7,9-dihydro-8H-purin-8-one]
  IC50: < 50 nM

## Cn1cc(C(F)(F)F)nc1-c1ccc(Cn2c(=O)n(C)c3cnc(-c4cccnc4C4CC4)nc32)cc1 [Compound I-71, 2-(2-cyclopropylpyridin-3-yl)-7-methyl-9-(4-(1-methyl-4-(trifluoromethyl)-1H-imidazol-2-yl)benzyl)-7,9-dihydro-8H-purin-8-one]
  IC50: < 50 nM

## Cn1cc(C(F)(F)F)nc1-c1ccc(Cn2c(=O)n(C)c3cnc(-c4cccnc4C(F)F)nc32)cc1 [Compound I-72, 2-(2-(difluoromethyl)pyridin-3-yl)-7-methyl-9-(4-(1-methyl-4-(trifluoromethyl)-1H-imidazol-2-yl)benzyl)-7,9-dihydro-8H-purin-8-one]
  IC50: 200 to 2000 nM

## COc1ccc(-c2ncc3[nH]c(=O)n(Cc4ccc(-c5nc(C(F)(F)F)cn5C)cc4)c3n2)c(C)n1 [Compound I-73, 2-(6-methoxy-2-methylpyridin-3-yl)-9-(4-(1-methyl-4-(trifluoromethyl)-1H-imidazol-2-yl)benzyl)-7,9-dihydro-8H-purin-8-one]
  IC50: < 50 nM

## CC(C)Oc1ccc(-c2ncc3[nH]c(=O)n(Cc4ccc(-c5nc(C(F)(F)F)cn5C)cc4)c3n2)c(F)n1 [Compound I-74, 2-(2-fluoro-6-isopropoxypyridin-3-yl)-9-(4-(1-methyl-4-(trifluoromethyl)-1H-imidazol-2-yl)benzyl)-7,9-dihydro-8H-purin-8-one]
  IC50: 200 to 2000 nM

## COc1ccc(-c2ncc3[nH]c(=O)n(Cc4ccc(-c5nc(C(F)(F)F)cn5C)cc4)c3n2)c(F)n1 [Compound I-75, 2-(2-fluoro-6-methoxypyridin-3-yl)-9-(4-(1-methyl-4-(trifluoromethyl)-1H-imidazol-2-yl)benzyl)-7,9-dihydro-8H-purin-8-one]
  IC50: 50 to 200 nM

## CC(C)c1ncccc1-c1ncc2[nH]c(=O)n(Cc3ccc(-c4nc(C(F)(F)F)cn4C4CC4)cc3)c2n1 [Compound I-76, 9-(4-(1-cyclopropyl-4-(trifluoromethyl)-1H-imidazol-2-yl)benzyl)-2-(2-isopropylpyridin-3-yl)-7,9-dihydro-8H-purin-8-one]
  IC50: < 50 nM

## CC(C)c1ncccc1-c1ncc2[nH]c(=O)n(Cc3ccc(-n4nc(C(F)(F)F)cc4N4CCOCC4)cc3)c2n1 [Compound I-77, 2-(2-isopropylpyridin-3-yl)-9-(4-(5-morpholino-3-(trifluoromethyl)-1H-pyrazol-1-yl)benzyl)-7,9-dihydro-8H-purin-8-one]
  IC50: < 50 nM

## COc1cc(C)n(-c2ccc(Cn3c(=O)[nH]c4cnc(-c5cccnc5C(C)C)nc43)cc2)n1 [Compound I-78, 2-(2-isopropylpyridin-3-yl)-9-(4-(3-methoxy-5-methyl-1H-pyrazol-1-yl)benzyl)-7,9-dihydro-8H-purin-8-one]
  IC50: < 50 nM

## CC(C)c1ncccc1-c1ncc2[nH]c(=O)n([C@H](C)c3ccc(-c4nc(C(F)(F)F)cn4C)cc3)c2n1 [Compound I-79, (R)-2-(2-isopropylpyridin-3-yl)-9-(1-(4-(1-methyl-4-(trifluoromethyl)-1H-imidazol-2-yl)phenyl)ethyl)-7,9-dihydro-8H-purin-8-one]
  IC50: < 50 nM
